Test results: paper PMC5914052, “ATR kinase inhibitors NVP-BEZ235 and AZD6738 effectively penetrate the brain after systemic administration” (Radiation Oncology (London, England), 2018)
Where two headings read alike, the source gives them in different places.

Assays:
[1] = Pharmacokinetics after i.p. delivery: blood and brain concentration by HPLC/MS; format: in vivo, CD-1 mice; details: 25 mg/Kg i.p.; for concentration at 1 h / concentration at 2 h / concentration at 6 h / concentration at 8 h: mouse, ip, tumor-free CD-1 mice
Protocol: Tumor-free 8-weeks old CD-1 mice (Envigo, http://www.envigo.com) were inoculated i.p. with 25 mg/Kg body weight of NVP-BEZ235 or AZD6738. 1, 2, 6 and 8 h later, blood was collected by retro-orbital bleeding after which the mice were euthanized by CO2 asphyxiation and the brains explanted. Blood and brain samples were then extracted and NVP-BEZ235 and AZD6738 concentrations determined by High Performance Liquid Chromatography (HPLC)/mass spectrometry (MS) as described.
The biodistribution and pharmacokinetics of these ATRi, in particular the concentration reached in the brain after i.p. delivery, is crucial to determine optimal tumor radio-sensitization conditions in vivo. The presence of genuine NVP-BEZ235 and AZD6738 in the mouse blood and brain after i.p. delivery was investigated using HPLC/MS. Figure 1a and 1c show the isotopic patterns of NVP-BEZ235 and AZD6738 respectively, as determined by MS. A logarithmic relationship was found between abundance of NVP-BEZ235 (Fig. 1b) and AZD6738 (Fig. 1d) (expressed in arbitrary units) and their concentrations. For both NVP-BEZ235 and AZD6738, the Limit of Quantitation (LoQ) was 10 × 10^− 9 M. Tumor-free mice were inoculated i.p. with 25 mg/Kg body weight of NVP-BEZ235 (Fig. 1f) or AZD6738 (Fig. 1i). Mouse ID numbers are indicated at the top of Fig. 1f and I for the sake of reference. Blood samples were then withdrawn retro-orbitally after 1, 2, 6 and 8 h (Fig. 1g and k). Immediately after blood sampling, the animals were euthanized and their brains removed (Fig. 1e and h). All samples were homogenized and extracted concomitantly and its ATRi content determined by HPLC/MS. […] This value returned close to the LoQ (12 × 10^− 9 M) 8 h after the i.p. delivery (Fig. 1e).
Fig. 1 Pharmacokinetics of ATRi studied by HPLC/MS in positive polarity. a Isotopic pattern of NVP-BEZ235. b Relationship between HPLC/MS-determined abundance and concentration of NVP-BEZ235. The limit of quantitation (LoQ) was 10 × 10^− 9 M. c Isotopic pattern of AZD6738. d Relationship between HPLC/MS-determined abundance and concentration of AZD6738. The limit of quantitation (LoQ) was 10 × 10^− 9 M. e-g BBB crossing by NVP-BEZ235. Tumor-free mice were inoculated i.p. with 25 mg/Kg body weight of NVP-BEZ235 (f). At the indicated times [T (h)] blood was withdrawn retroorbitally for plasma isolation and analysis (g). Mice were then euthanized and the brains explanted (e). All blood and brain samples were then resuspended in water/methanol, homogenized, centrifuged and the supernatant determined for its NVP-BEZ235 concentration using HPLC/MS as described under Methods and Materials. Concentration values (× 10^− 9 M) are shown at the top of (e) and (g) and illustrated at half-panel by the area of a colored triangle. S.D. of values determined by this procedure is on average ± 31%. Mouse ID numbers are shown at the top of F for the sake of reference. h-k As in E-G but with AZD6738 TEXT PRINTED IN THE PICTURE: (e) NVP-BEZ235: [NVP-BEZ235] x 10^-9 M: 36 (T (h): 1; Brain); [NVP-BEZ235] x 10^-9 M: 111 (T (h): 2; Brain); [NVP-BEZ235] x 10^-9 M: 44 (T (h): 6; Brain); [NVP-BEZ235] x 10^-9 M: 12 (T (h): 8; Brain) | (g) NVP-BEZ235: [NVP-BEZ235] x 10^-9 M: 146 (T (h): 1; Blood); [NVP-BEZ235] x 10^-9 M: 32 (T (h): 2; Blood); [NVP-BEZ235] x 10^-9 M: 28 (T (h): 6; Blood); [NVP-BEZ235] x 10^-9 M: 12 (T (h): 8; Blood) | (h) AZD6738: [AZD6738] x 10^-9 M: 480 (T (h): 1; Brain); [AZD6738] x 10^-9 M: 380 (T (h): 2; Brain); [AZD6738] x 10^-9 M: 80 (T (h): 6; Brain); [AZD6738] x 10^-9 M: 9 (T (h): 8; Brain) | (k) AZD6738: [AZD6738] x 10^-9 M: 760 (T (h): 1; Blood); [AZD6738] x 10^-9 M: 1480 (T (h): 2; Blood); [AZD6738] x 10^-9 M: 140 (T (h): 6; Blood); [AZD6738] x 10^-9 M: 40 (T (h): 8; Blood)

[2] = test system: COMI GIC-driven orthotopic GB; details: for Effect on survival of irradiated animals: 25 mg/Kg i.p. + 0.5 Gy IR, three consecutive days, versus vehicle+IR; for Median animal survival: 25 mg/Kg i.p. followed 4 h later by 0.5 Gy IR to the head, at d22, d23 and d24, vehicle (DMSO)+IR 99 days
[3] = test system: ATR; details: in cells, cited from earlier work
[4] = test system: PI3K/mTOR pathway; details: cited from earlier work; for IC50: in cells
[5] = Brain histopathology (H/E) of tumor-bearing mice treated with ATRi+IR; details: H/E staining at d88
[6] = Tolerability of NVP-BEZ235 doses above 25 mg/Kg in animals; format: in vivo; details: our animals, data not shown
From the text: Gil del Alcazar and coworkers have described radiosensitization of orthotopic GB by NVP-BEZ235 using the established glioma cell line U87 [15]. The U87-driven tumors yet poorly mimic the infiltrative and neovascularization growth properties of clinical GB [17]. Further, the U87 cell line was recently reported to represent a mix-up with another cell line. In order to investigate the radiosensitization properties of NVP-BEZ235 towards orthotopic GB driven by primary GIC that more faithfully mimic the clinical tumors growth, [17] we preliminarily investigated the pharmacokinetics of NVP-BEZ235 using HPLC/MS. […] The early termination of recent NVP-BEZ235 clinical trials due to elevated toxicity may confirm that safety dosing of NVP-BEZ235 should be thoroughly investigated prior to use. […] (Fig. 1e). […] NVP-BEZ235 can diffuse to brain tissues at pharmacologically active levels after systemic administration, albeit the presence of the efflux ABC-transporters (in particular ABCG2) at the BBB may in part restrict its brain penetration. In a preliminary tumor radiosensitization study, we then developed primary adult COMI tumors in NOD SCID mice, whose immunodeficient phenotype is required for reproducible engraftment in virtually 100% of mice (Fig. 2a). […]

[7] = mouse, in vivo
[8] = test system: orthotopic xenograft models of GB; design: method as in PMID 27542970; details: nude rats and NOD/SCID mice; cited from earlier work
[9] = brain, read-out: Brain concentration
[10] = plasma, read-out: Blood concentration

SMILES	concentration at 1 h [1, 9] [nM]	concentration at 2 h [1, 9] [nM]	concentration at 6 h [1, 9] [nM]	concentration at 8 h [1, 9] [nM]	concentration at 1 h [1, 10] [nM]	concentration at 2 h [1, 10] [nM]	concentration at 6 h [1, 10] [nM]	concentration at 8 h [1, 10] [nM]	Effect on survival of irradiated animals [2]	Median animal survival [2] [days]	also measured
C[C@@H]1COCCN1c1cc(C2([S@](C)(=N)=O)CC2)nc(-c2cc[nH]c3nccc2-3)n1 [AZD6738]	480	380	80	9	760	1480	[…]	[…]	could not observe any survival improvement	101	Brain concentrations achievable after i.p. administration relative to NVP-BEZ235 ([1]; AZD6738 versus NVP-BEZ235): […]; IC50 ([3]; read-out: IC50 for ATR kinase inhibition in cells): […]; Inhibition of related kinases in the PI3K/mTOR pathway [4]: does not inhibit significantly; Brain histology variation versus DMSO+IR [5]: No significant histology variations
Cn1c(=O)n(-c2ccc(C(C)(C)C#N)cc2)c2c3cc(-c4cnc5ccccc5c4)ccc3ncc21 [NVP-BEZ235]	36	111	44	12	146	32	28	12	no elongation of median survival	86	Decrease of blood concentration from 1 h to 2 h ([1]; 1 h versus 2 h): > 4 fold; Toxicity of doses higher than 25 mg/Kg i.p. [6]: significant toxicity; Brain histology variation versus DMSO+IR [7]: No significant histology variations; IC50 ([3]; read-out: IC50 for ATR inhibition in cells): 21 nM; IC50 ([4]; S473-Akt, read-out: Concentration giving 50% reduction of S473-Akt levels in cells): 8 nM; IC50 ([4]; T308-Akt, read-out: Concentration giving 50% reduction of T308-Akt levels in cells): 30 nM; Side effects of doses higher than 25 mg/Kg [8]: severe side effects; Survival benefit or inhibition of tumour growth [8]: no survival benefit or inhibition of tumour growth
